Reference: patent US20130053243A1, “PLANTS HAVING INCREASED TOLERANCE TO HERBICIDES” (BASF SE, priority 2010, published 2013)
pKi: −log10 of the molar value.

Experiments:
[1] = target: T1, Arabidopsis HPPD variant P336A E363Q (Arabidopsis thaliana, UniProt P93836, E363Q/P336A); test: HPPD activity assay, mutant enzyme; format: biochemical
T1 construct: His6 (N); made in house; host or cells: E. coli BL21 (DE3)
Experimental: (§1) HPPD produces homogentisic acid and CO2 from 4-hydroxyphenylpyruvate (4-HPP) and O2. The activity assay for HPPD is based on the analysis of homogentisic acid by reversed phase HPLC.
(§2) The assay mixture can contain 150 mM potassium phosphate buffer pH 7.0, 50 mM L-ascorbic acid, 1 μM FeSO4 and 7 μg of purified enzyme in a total volume of 1 ml.
(§3) Inhibitors are dissolved in DMSO (dimethylsulfoxide) to a concentration of 20 mM or 0.5 mM, respectively. From this stock solution serial five-fold dilutions are prepared in DMSO, which are used in the assay. The respective inhibitor solution accounts for 1% of the assay volume. Thus, final inhibitor concentrations range from 200 μM to 2.5 nM or from 5 μM to 63 pM, respectively.
(§4) After a preincubation of 30 min the reaction is started by adding 4-HPP to a final concentration of 0.1 mM. The reaction is allowed to proceed for 120 min at room temperature. The reaction is stopped by addition of 100 μl of 4.5 M phosphoric acid.
(§5) The sample is extracted on an Oasis® HLB cartridge 3 cc/60 mg (Waters) that was preequilibrated with 63 mM phosphoric acid. L-ascorbic acid is washed out with 3 ml of 63 mM phosphoric acid. Homogentisate is eluted with 1 ml of a 1:1 mixture of 63 mM phosphoric acid and methanol (w/w).
(§6) 10 μl of the eluate is analyzed by reversed phase HPLC on a Symmetry® C18 column (particle size 3.5 μm, dimensions 4.6×100 mm; Waters) using 5 mM H3PO4/15% ethanol (w/w) as an eluent.
(§7) Homogentisic acid is detected electrochemically and quantified by measuring peak areas (Empower software; Waters).
(§8) Activities are normalized by setting the uninhibited enzyme activity to 100%. IC50 values are calculated using non-linear regression.
(§9) The assay mixture can contain 150 mM potassium phosphate buffer pH 7.0, 50 mM L-ascorbic acid, 100 μM Catalase (Sigma-Aldrich), 1 μM FeSO4 and 0.2 units of purified HPPD enzyme in a total volume of 505 μl. 1 unit is defined as the amount of enzyme that is required to produce 1 nmol of HGA per minute at 20° C.
(§10) After a preincubation of 30 min the reaction is started by adding 4-HPP to a final concentration of 0.05 mM. The reaction is allowed to proceed for 45 min at room temperature. The reaction is stopped by the addition of 50 μl of 4.5 M phosphoric acid. The sample is filtered using a […] pore size PVDF filtration device.
(§11) 5 μl of the cleared sample is analyzed on an Atlantis T3 column (particle size 3 μm, dimensions 3×50 mm; Waters) by isocratic elution using 90% 10 mM NaH2PO4 pH 2.2, 10% methanol (v/v).
(§12) HGA is detected electrochemically at 750 mV (mode: DC; polarity: positive) and quantified by integrating peak areas (Empower software; Waters).
(§13) Inhibitors are dissolved in DMSO (dimethylsulfoxide) to a concentration of 0.5 mM. From this stock solution serial five-fold dilutions are prepared in DMSO, which are used in the assay. The respective inhibitor solution accounts for 1% of the assay volume. Thus, final inhibitor concentrations range from 5 μM to 320 pM, respectively. Activities are normalized by setting the uninhibited enzyme activity to 100%. IC50 values are calculated using non-linear regression.
(§14) Purified, mutant HPPD enzymes are obtained by the methods described above. Dose response and kinetic measurements are carried out using the described HPPD activity assay. Apparent michaelis constants (Km) and maximal reaction velocities (Vmax) are calculated by non-linear regression with the software GraphPad Prism 5 (GraphPad Software, La Jolla, USA) using a substrate inhibition model. Apparent kcat values are calculated from Vmax assuming 100% purity of the enzyme preparation. Weighted means (by standard error) of Km and IC50 values are calculated from at least three independent experiments. The Cheng-Prusoff equation for competitive inhibition (Cheng, Y. C.; Prusoff, W. H. Biochem Pharmacol 1973, 22, 3099-3108) is used to calculate dissociation constants (Ki). Examples of the data obtained are depicted in Table 13.

[2] = target: T2, Arabidopsis HPPD variant M335Q (Arabidopsis thaliana, UniProt P93836, M335Q); test: HPPD activity assay, mutant enzyme; format: biochemical
T2 construct: His6 (N); made in house; host or cells: E. coli BL21 (DE3)
T2 sequence (P93836 whole entry M335Q): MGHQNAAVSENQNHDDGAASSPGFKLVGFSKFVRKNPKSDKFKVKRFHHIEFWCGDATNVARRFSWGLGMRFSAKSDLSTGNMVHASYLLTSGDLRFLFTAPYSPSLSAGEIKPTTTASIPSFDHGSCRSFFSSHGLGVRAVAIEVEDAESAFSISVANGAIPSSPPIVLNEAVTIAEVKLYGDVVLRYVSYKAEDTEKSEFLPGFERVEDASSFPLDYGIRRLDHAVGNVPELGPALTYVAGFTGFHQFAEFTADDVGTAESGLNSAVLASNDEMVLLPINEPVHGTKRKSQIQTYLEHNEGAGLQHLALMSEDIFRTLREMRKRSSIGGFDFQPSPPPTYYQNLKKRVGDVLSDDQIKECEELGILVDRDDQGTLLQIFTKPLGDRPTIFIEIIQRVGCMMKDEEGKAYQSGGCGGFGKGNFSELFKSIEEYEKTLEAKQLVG
Experimental: as §1, §2, §3, §4, §5, §6, §7, §8, §9, §10, §11, §12, §13, §14

[3] = target: T3, Arabidopsis HPPD variant M335N (Arabidopsis thaliana, UniProt P93836, M335N); test: HPPD activity assay, mutant enzyme; format: biochemical
T3 construct: His6 (N); made in house; host or cells: E. coli BL21 (DE3)
T3 sequence (P93836 whole entry M335N): as the sequence (P93836 whole entry M335Q) above, with Q335N counted along it
Experimental: as §1, §2, §3, §4, §5, §6, §7, §8, §9, §10, §11, §12, §13, §14

[4] = target: T4, Arabidopsis HPPD variant I393L (Arabidopsis thaliana, UniProt P93836, I393L); test: HPPD activity assay, mutant enzyme; format: biochemical
T4 construct: His6 (N); made in house; host or cells: E. coli BL21 (DE3)
T4 sequence (P93836 whole entry I393L): as the sequence (P93836 whole entry M335Q) above, with Q335M, I393L counted along it
Experimental: as §1, §2, §3, §4, §5, §6, §7, §8, §9, §10, §11, §12, §13, §14

Chlamydomonas HPPD2 = Chlamydomonas HPPD2 (Chlamydomonas reinhardtii, UniProt A0A2K3DET5); test: HPPD activity assay, wildtype enzyme; format: biochemical; conditions: calculated from IC50 with Cheng-Prusoff equation, read-out: dissociation constant Ki
Sequence of Chlamydomonas HPPD2 (A0A2K3DET5 entry or part of it): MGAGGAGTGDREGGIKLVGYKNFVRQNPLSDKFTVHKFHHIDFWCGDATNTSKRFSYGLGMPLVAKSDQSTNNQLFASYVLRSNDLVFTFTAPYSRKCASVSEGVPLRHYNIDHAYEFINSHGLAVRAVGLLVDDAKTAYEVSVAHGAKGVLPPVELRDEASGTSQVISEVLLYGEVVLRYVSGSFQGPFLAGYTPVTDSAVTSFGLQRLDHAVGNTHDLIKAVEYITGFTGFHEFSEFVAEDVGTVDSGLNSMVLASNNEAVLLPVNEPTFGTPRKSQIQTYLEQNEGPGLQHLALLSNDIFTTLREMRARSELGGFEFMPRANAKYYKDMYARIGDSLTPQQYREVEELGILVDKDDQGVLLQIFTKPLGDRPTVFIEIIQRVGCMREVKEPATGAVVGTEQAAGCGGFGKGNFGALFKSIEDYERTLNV
Experimental: as §1, §2
Inhibitors are dissolved in DMSO (dimethylsulfoxide) to a concentration of 20 mM or 0.5 mM, respectively. From this stock solution serial five-fold dilutions are prepared in DMSO, which are used in the assay. The respective inhibitor solution accounts for 1% of the assay volume. […]
as §6, §7
Activities are normalized by setting the uninhibited enzyme activity to 100%. IC50 values are calculated using non-linear regression. […]
as §11
HGA is detected electrochemically at 750 mV (mode: DC; polarity: positive) and quantified by integrating peak areas (Empower software; Waters). […]

C. reinhardtii (CC-503) = test: C. reinhardtii growth inhibition by HPPD inhibiting herbicides; format: cell-based, Chlamydomonas reinhardtii
Description: Bleaching herbicides with a mode of action in plastoquinone or tocopherol biosynthesis can inhibit algae growth (Tables 14 and 15). These effects can be partly reversed by intermediates of homogentisic acid biosynthesis (Table 14). To generate mutations conferring “coumarone-derivative herbicide” resistance in HPPD or HST genes, chemical or UV mutagenesis can be used. Especially unicellular organisms like Chlamydomonas reinhardtii or Scenedesmus obliquus are useful for identifying dominant mutations in herbicide resistance.
Algae cells of Chlamydomonas reinhardtii strains CC-503 and CC-1691 (Duke University, Durham, USA) are propagated in TAP medium (Gorman and Levine (1965) PNAS 54: 1665-1669) by constant shaking at 100 rpm, 22° C. and 30 μmol Phot*m^−2*[…] light illumination. Scenedesmus obliquus (University of Gottingen, Germany) are propagated in algae medium as described (Boger and Sandmann, (1993) In: Target assays for modern herbicides and related phytotoxic compounds, Lewis Publishers) under same culturing conditions as mentioned for Chlamydomonas. Compound screening is performed at 450 μmol Phot*m^−2*[…] illumination.

T1 sequence (P93836 whole entry P336A/E363Q): as the sequence (P93836 whole entry M335Q) above, with Q335M, P336A, E363Q counted along it

Compound	pKi [1]	pKi [2]	pKi [3]	pKi [4]	pKi (Chlamydomonas HPPD2)	Growth inihibition [%] C. reinhardtii (CC-503) (C. reinhardtii (CC-503); c 1 * 10^−4 M) [%]	Growth inihibition [%] C. reinhardtii (CC-503) + Homogentisic acid (C. reinhardtii (CC-503); c 1 * 10^−4 M) [%]	Growth inihibition [%] C. reinhardtii (CC-503) (C. reinhardtii (CC-503); c 5 * 10^−4 M) [%]	Growth inihibition [%] C. reinhardtii (CC-503) + Homogentisic acid (C. reinhardtii (CC-503); c 5 * 10^−4 M) [%]
CC1=NOC(c2c(Cl)ccc(C3=C(O)c4ncccc4N(CC(F)F)S3(=O)=O)c2Cl)C1 (stereo not drawn) [Inhibitor 1, 3-[2,4-dichloro-3-(3-methyl-4,5-dihydroisoxazol-5-yl)phenyl]-1-(2,2-difluoroethyl)-2,2-dioxo-pyrido[3,2-c]thiazin-4-ol]	7.89	7.62	7.70	7.68	8.10				
Cc1c(C(=O)c2cnn(C)c2O)ccc(S(C)(=O)=O)c1C1=NOCC1 [Topramezone, reference compound]						100	80	100	100
